According to paper PMC11413854, “Reversible Control of Native GluN2B-Containing NMDA Receptors with Visible Light” (ACS Chemical Neuroscience, 2024):
“And” between values parts separate entries of the source, which are not always exact repeats. Equal entries are not always repeated. Where two headings read alike, the source gives them in different places.

Biological target: T1, GluN1/GluN2B receptors (UniProt P35439+Q01097)
T1 construct: expressed in transfected cells; host or cells: HEK-293 cells (ECACC, Cat #96121229)
T1 sequence (Q01097 27-1482, other chains not shown): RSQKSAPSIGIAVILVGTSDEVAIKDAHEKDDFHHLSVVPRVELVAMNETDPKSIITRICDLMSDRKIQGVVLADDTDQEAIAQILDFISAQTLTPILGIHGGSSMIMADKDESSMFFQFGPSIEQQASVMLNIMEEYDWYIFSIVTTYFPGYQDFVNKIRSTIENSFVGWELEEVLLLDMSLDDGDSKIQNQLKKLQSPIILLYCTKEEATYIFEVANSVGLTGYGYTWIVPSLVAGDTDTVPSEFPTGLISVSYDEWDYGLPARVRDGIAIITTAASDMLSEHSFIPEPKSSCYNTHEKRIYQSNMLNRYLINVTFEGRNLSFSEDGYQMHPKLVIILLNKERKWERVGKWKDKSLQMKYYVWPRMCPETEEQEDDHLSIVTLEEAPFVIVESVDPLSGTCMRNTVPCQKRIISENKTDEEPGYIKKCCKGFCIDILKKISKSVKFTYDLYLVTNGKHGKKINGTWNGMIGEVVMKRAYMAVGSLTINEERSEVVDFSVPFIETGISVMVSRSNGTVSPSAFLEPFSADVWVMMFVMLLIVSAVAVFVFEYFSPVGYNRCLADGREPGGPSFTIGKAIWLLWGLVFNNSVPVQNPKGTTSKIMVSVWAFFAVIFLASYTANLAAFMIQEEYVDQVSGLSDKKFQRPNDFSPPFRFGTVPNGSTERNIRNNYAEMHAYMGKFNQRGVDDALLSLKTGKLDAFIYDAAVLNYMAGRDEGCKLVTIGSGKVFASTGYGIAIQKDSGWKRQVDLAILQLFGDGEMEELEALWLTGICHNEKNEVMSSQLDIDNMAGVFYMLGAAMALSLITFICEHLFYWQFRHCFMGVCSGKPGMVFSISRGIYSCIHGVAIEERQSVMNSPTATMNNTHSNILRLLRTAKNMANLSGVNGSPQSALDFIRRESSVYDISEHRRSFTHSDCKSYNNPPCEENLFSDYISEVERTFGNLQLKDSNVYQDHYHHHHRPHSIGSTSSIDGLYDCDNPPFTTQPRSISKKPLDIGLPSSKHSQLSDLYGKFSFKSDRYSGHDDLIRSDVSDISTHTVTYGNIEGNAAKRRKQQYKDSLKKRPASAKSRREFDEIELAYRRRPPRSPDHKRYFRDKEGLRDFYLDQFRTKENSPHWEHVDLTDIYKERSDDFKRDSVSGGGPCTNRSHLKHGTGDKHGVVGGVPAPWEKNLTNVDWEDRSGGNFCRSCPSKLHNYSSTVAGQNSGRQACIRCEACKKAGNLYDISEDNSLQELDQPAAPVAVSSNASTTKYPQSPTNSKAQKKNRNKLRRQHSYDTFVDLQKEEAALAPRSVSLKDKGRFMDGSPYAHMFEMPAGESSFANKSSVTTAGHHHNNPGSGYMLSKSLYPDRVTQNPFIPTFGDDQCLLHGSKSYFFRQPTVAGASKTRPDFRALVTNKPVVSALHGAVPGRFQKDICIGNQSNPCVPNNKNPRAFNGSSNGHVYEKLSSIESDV
Test: Whole-cell patch-clamp and photomodulation in HEK cells expressing GluN1/GluN2B
Assay type: cell-based, rat GluN1, mouse GluN2B
Settings: for inhibition of GluN1/GluN2B currents in HEK cells: 2 µM; for inhibition at 2 µM: HEK293, 2 µM, read-out: inhibition of GluN1/GluN2B currents in HEK cells
Source text: Now that we have established the photodependence of OptoNAM-3 action, we tested whether this compound could be used to perform real-time modulation of NMDAR activity with light. To answer this question, we turned to mammalian cells, whose transparency allows homogeneous illumination of all membrane-expressed NMDARs. OptoNAM-3 was perfused together with agonists glutamate and glycine on HEK cells expressing GluN1/GluN2B receptors. […] OptoNAM-3 thus allows real-time and reversible inhibition of GluN1/GluN2B activity with light. By plotting the effect of different concentrations of OptoNAM-3 in the dark and during UV illumination, we observed a 20-fold UV-induced shift of OptoNAM-3 IC50 compared to the dark condition (Figure 4C). […] The stronger photodependence of OptoNAM-3 action on HEK cells might stem either from differences between cellular expression systems (Xenopus oocytes vs HEK cells) or from the different irradiation contexts (in solution for experiments in Xenopus oocytes and in a cellular context for HEK cells) (see below).
HEK293 cells were used for heterologous expression of recombinant NMDA receptors studies using whole-cell patch-clamp. Wild-type NMDARs were expressed in HEK-293 cells (obtained from ECACC, Cat #96121229). HEK cells were cultured in DMEM + glutamax medium supplemented with 10% fetal bovine calf serum and 1% penicillin/streptomycin (5000 U/mL) and cultured under standard cell culture conditions (5% CO2, 37 °C). Transfections were performed using polyethylenimine (PEI) in a cDNA/PEI ratio of 1:3 (v/v). Cells were cotransfected with a DNA mixture containing plasmids encoding wild-type GluN1, wild-type GluN2A or GluN2B, and eGFP. The total amount of DNA was 1.0 μg per 500 μL of transfected medium containing […] diameter coverslip, and the mass ratio of GluN1:GluN2B:eGFP was 1:2:1 (1:1:1 for GluN2A). 150 μM of D-APV was added to the culture medium after transfection.
Receptor functionality, OptoNAM-3 photodependence (dark then UV light) of activity, and association/dissociation kinetics (with and without UV light) were assessed in patch-clamp recordings of lifted whole cells 24–72 h post transfection (cells were not lifted for the 2 light cycles protocol, i.e., when “perfusion turned off” was written below current traces). Positively transfected cells were visualized by GFP fluorescence. The extracellular solution contained (in mM) 140 NaCl, 2.8 KCl, 1 CaCl2, 10 HEPES, 20 sucrose, and 0.01 DTPA (290–300 mOsm), pH adjusted to 7.3 using NaOH. […] Currents were sampled at 10 kHz and low-pass filtered at 2 kHz using an Axopatch 200B amplifier, a 1550B Digidata, and Clampex 10.6 (Molecular Devices). Agonists (100 μM glutamate and 100 μM glycine) were applied using a multibarrel solution exchanger (RSC 200; BioLogic). Recordings were performed at a holding potential of −60 mV and at room temperature.
Computer-controlled light pulses during electrophysiological recordings were provided from high power sensitive LEDs (CoolLED pE-4000: 4 channels each controlling 4 wavelengths from 365 to 770 nm). The LED port was directly coupled via a microscope adaptor to the fluorescence port of an inverted IX73 Olympus microscope. The output beam of the LED entry was directed toward the sample thanks to a mirror (Chroma) and applied to the center of the recording dish through a 10× objective (irradiance ∼4 mW/mm^2 for 365, 385, and 435 nm; ∼6.5 mW/mm^2 for 460 nm; ∼2 mW/mm^2 for 490 and 525 nm; ∼1.5 mW/mm^2 for 500 nm, and ∼4.5 mW/mm^2 for 550 and 580 nm) (Olympus, 0.30 N.A.). Light power was measured in the center of the recording dish plane with an optical power meter (1916-C, Newport) equipped with a calibrated UV/D detector, and irradiance was obtained upon dividing light power by the illuminated field of the microscope 10× objective (19 mm^2).
Data were collected and analyzed using pClamp 10.5 (Molecular Devices) and fitted using Sigmaplot 11.0 (SSPS). […]

[1] = 550 nm illumination from UV state

Question: How did the “inhibition of GluN1/GluN2B currents in HEK cells” value [1] turn out when c1ccc(/N=N/c2ccc(CCNc3ccncc3)cc2)cc1 [OptoNAM-3, (E)-N-(4-(Phenyldiazenyl)phenethyl)pyridin-4-amine] was run?
Answer: 58.559%

Question: What about the “inhibition of GluN1/GluN2B currents in HEK cells” value (dark) of the same compound?
Answer: 76.928%

Question: What about the “inhibition of GluN1/GluN2B currents in HEK cells” value (under 365 nm illumination) of the same compound?
Answer: 23.428%

Question: What about the inhibition at 2 µM [1] of the same compound?
Answer: 59%

Question: What about the inhibition at 2 µM (dark) of the same compound?
Answer: 77%

Question: What about the inhibition at 2 µM (under 365 nm illumination) of the same compound?
Answer: 23%

Question: What about the “tau off of inhibition relief under UV illumination” value (HEK cells, 365 nm) of the same compound?
Answer: 0.814 s

Question: What about the “tau off of inhibition relief by washout in the dark” value (HEK cells, dark) of the same compound?
Answer: 30.520 s

Question: And the “Relative current (IOpto/I0)” value ([OptoNAM-3] 0.050 µM, HEK cells, 365 nm illumination)?
Answer: 0.936

Question: And the “Relative current (IOpto/I0)” value ([OptoNAM-3] 0.050 µM, HEK cells, dark PSS (trans))?
Answer: 0.679

Question: What about the “Relative current (IOpto/I0)” value ([OptoNAM-3] 0.125 µM, HEK cells, 365 nm illumination) of the same compound?
Answer: 0.926

Question: What about the “Relative current (IOpto/I0)” value ([OptoNAM-3] 0.125 µM, HEK cells, dark PSS (trans)) of the same compound?
Answer: 0.513

Question: What about the “Relative current (IOpto/I0)” value ([OptoNAM-3] 0.300 µM, HEK cells, 365 nm illumination) of the same compound?
Answer: 0.848

Question: What about the “Relative current (IOpto/I0)” value ([OptoNAM-3] 0.300 µM, HEK cells, dark PSS (trans)) of the same compound?
Answer: 0.435

Question: What about the “Relative current (IOpto/I0)” value ([OptoNAM-3] 0.500 µM, HEK cells, dark PSS (trans)) of the same compound?
Answer: 0.261

Question: And the “Relative current (IOpto/I0)” value ([OptoNAM-3] 1.000 µM, HEK cells, 365 nm illumination)?
Answer: 0.722

Question: And the “Relative current (IOpto/I0)” value ([OptoNAM-3] 1.000 µM, HEK cells, dark PSS (trans))?
Answer: 0.205

Question: And the “Relative current (IOpto/I0)” value ([OptoNAM-3] 1.500 µM, HEK cells, 365 nm illumination)?
Answer: 0.713

Question: What about the “Relative current (IOpto/I0)” value ([OptoNAM-3] 1.500 µM, HEK cells, dark PSS (trans)) of the same compound?
Answer: 0.181

Question: What about the “Relative current (IOpto/I0)” value ([OptoNAM-3] 2.000 µM, HEK cells, 365 nm illumination) of the same compound?
Answer: 0.705

Question: And the “Relative current (IOpto/I0)” value ([OptoNAM-3] 2.000 µM, HEK cells, dark PSS (trans))?
Answer: 0.166

Question: What about the “Relative current (IOpto/I0)” value ([OptoNAM-3] 2.500 µM, HEK cells, 365 nm illumination) of the same compound?
Answer: 0.442

Question: And the “Relative current (IOpto/I0)” value ([OptoNAM-3] 2.500 µM, HEK cells, dark PSS (trans))?
Answer: 0.034

Question: What about the IC50 (cell illuminated at 365 nm, read-out: IC50 on GluN1/GluN2B in HEK cells illuminated at 365 nm) of the same compound?
Answer: 2950 nM and 3000 nM

Question: And the IC50 (dark, read-out: IC50 on GluN1/GluN2B in HEK cells in the dark)?
Answer: 150 nM
